Like-named read-outs stand apart in the source and are kept apart here.
Experiments:
[1] = test system: corn earworm (Helicoverpa zea); assay: Insecticidal test on treated lepidopteran diet, corn earworm; assay type: in vivo; settings: 120 h, read-out: AVG HELIZE 50 (percent control, corn ear worm)
Protocol: (§1) The compounds identified in Table 1 were prepared according to the previous methods and were tested against beet armyworm and corn earworm as follows:
(§2) Insecticidal Test for Corn Earworm (Helicoverpa zea) and Beet Armyworm (Spodoptera exigua).
(§3) To prepare test solution, the test compound was formulated at 2000 ppm solution as 4 mg/2 mL of 9 acetone:1 tap water. 50 μL of the 2000 ppm (equivalent to 50 μg/cm^2 dose on diet surface area) test solution was pipetted upon the surface of 1 mL of lepidopteran diet (Southland Multi-Species Lepidopteran Diet) contained in each of eight wells per insect species (one well=1 replication). A second-instar corn earworm and beet armyworm was placed upon the treated diet in each well once the solvent had air-dried. Trays containing the treated diet and larvae were covered and then held in a growth chamber at 25° C., 50-55% RH, and 16 hr light:8 hr dark for 5 days. Observation were conducted 5 days after treatment and infestation. The number of dead insects of 8 per species per treatment was then determined and the results are given in Table 1 as a percent control at a dose of […].
(§4) Keys to the table: Mass spectral data were obtained using liquid chromatography mass spectroscopy (LC-MS). The masses are detected using electrospray ionization (ESI) and reported as Mol Ion (M+H, M−H); AVG LAPHEG 50 refers to activity against beet army worm (Spodoptera exigua) as defined above; AVG HELIZE 50 refers to activity against corn ear worm (Helicoverpa zea) as described above.

[2] = test system: beet armyworm (Spodoptera exigua); assay: Insecticidal test on treated lepidopteran diet, beet armyworm; assay type: in vivo; settings: 120 h, read-out: AVG LAPHEG 50 (percent control, beet army worm)
Protocol: as §1, §2, §3, §4

[3] = second-instar larvae on treated diet, 8 wells, dose of 50 mg/cm^2 [sic] (2000 ppm, 50 μL), dead insects counted 5 days after treatment

| Compound | pest or weed control at 2000 µg/mL [1, 3] [%] | pest or weed control at 2000 µg/mL [2, 3] [%] | pest or weed control at 2000 µg/mL [1] [%] | pest or weed control at 2000 µg/mL [2] [%] |
| --- | --- | --- | --- | --- |
| CC1CN(c2nc(N/N=C/c3cc(F)cc(C(F)(F)F)c3)nc(Nc3ccc(F)c(C(F)(F)F)c3)n2)CC(C)O1 (stereo not drawn) [Compound 47] | 75 | 100 |  |  |
| CCOCCN(CCOCC)c1nc(N/N=C/c2ccc(OC(F)(F)F)cc2)nc(Nc2ccc(F)c(C(F)(F)F)c2)n1 [Compound 48] | 0 | 13 |  |  |
| CC1CN(c2nc(N/N=C/c3ccc(OC(F)(F)C(F)F)cc3)nc(Nc3ccc(F)c(C(F)(F)F)c3)n2)CC(C)O1 (stereo not drawn) [Compound 49] | 100 | 100 |  |  |
| FC(F)(F)Oc1ccc(/C=N/Nc2nc(NCCN3CCOCC3)nc(Nc3cccc(C(F)(F)F)c3)n2)cc1 [Compound 50] | 100 | 100 |  |  |
| Fc1ccc(Nc2nc(NCc3ccc(Cl)nc3)nc(N/N=C/c3cccc(OC(F)(F)C(F)F)c3)n2)cc1C(F)(F)F [Compound 51] | 100 | 100 |  |  |
| Fc1ccc(Nc2nc(N/N=C/c3ccc(OC(F)(F)C(F)F)cc3)nc(N3CCOCC3)n2)cc1C(F)(F)F [Compound 52] | 100 | 100 |  |  |
| Fc1ccc(Nc2nc(N/N=C/c3cccc(OC(F)(F)C(F)F)c3)nc(N3CCOCC3)n2)cc1C(F)(F)F [Compound 53] | 100 | 100 |  |  |
| Fc1ccc(Nc2nc(N/N=C/c3ccc(OC(F)(F)F)cc3)nc(N3CCOCC3)n2)cc1C(F)(F)F [Compound 54] | 100 | 100 |  |  |
| Cc1cnc(CNc2nc(N/N=C/c3cccc(OC(F)(F)C(F)F)c3)nc(Nc3ccc(F)c(C(F)(F)F)c3)n2)cn1 [Compound 56] | 63 | 100 |  |  |
| Cc1cnc(CNc2nc(N/N=C/c3ccc(OC(F)(F)F)cc3)nc(Nc3ccc(F)c(C(F)(F)F)c3)n2)cn1 [Compound 57] | 100 | 100 |  |  |
| CONc1nc(N/N=C/c2cccc(C(F)(F)F)c2)nc(Nc2ccc(OC(F)(F)F)cc2)n1 [Compound 58] | 100 | 100 |  |  |
| Fc1ccc(Nc2nc(NCc3ccc(Cl)nc3)nc(N/N=C/c3cccc(OC(F)(F)F)c3)n2)cc1C(F)(F)F [Compound 60] | 100 | 100 |  |  |
| FC(F)C(F)(F)Oc1cccc(/C=N/Nc2nc(Nc3ccc(OC(F)(F)F)cc3)nc(N3CCOCC3)n2)c1 [Compound 61] | 100 | 100 |  |  |
| FC(F)(F)Oc1ccc(/C=N/Nc2nc(Nc3cccc(C(F)(F)F)c3)nc(N3CCOCC3)n2)cc1 [Compound 62] | 100 | 100 |  |  |
| Fc1ccc(Nc2nc(NCc3ccc(Cl)nc3)nc(N/N=C/c3ccc(OC(F)(F)C(F)F)cc3)n2)cc1C(F)(F)F [Compound 63] | 100 | 100 |  |  |
| Fc1ccc(Nc2nc(NCc3ccncc3)nc(N/N=C/c3ccc(OC(F)(F)F)cc3)n2)cc1C(F)(F)F [Compound 64] | 100 | 100 |  |  |
| Fc1ccc(Nc2nc(NCc3ccc(Cl)nc3)nc(N/N=C/c3ccc(C(F)(F)F)cc3)n2)cc1C(F)(F)F [Compound 65] | 100 | 100 |  |  |
| COc1cccc(/C=N/Nc2nc(NCc3ccc(Cl)nc3)nc(Nc3ccc(F)c(C(F)(F)F)c3)n2)c1 [Compound 66] | 100 | 100 |  |  |
| Fc1ccc(Nc2nc(NCc3ccc(Cl)nc3)nc(N/N=C/c3cc(Cl)cc(Cl)c3)n2)cc1C(F)(F)F [Compound 67] | 100 | 100 |  |  |
| Fc1ccc(Nc2nc(NCc3ccc(Cl)nc3)nc(N/N=C/c3ccc(Cl)cc3)n2)cc1C(F)(F)F [Compound 68] | 100 | 100 |  |  |
| Fc1ccccc1/C=N/Nc1nc(NCc2ccc(Cl)nc2)nc(Nc2ccc(F)c(C(F)(F)F)c2)n1 [Compound 69] | 100 | 100 |  |  |
| Fc1ccc(Nc2nc(NCc3ccc(Cl)nc3)nc(N/N=C/c3cccc(Br)c3)n2)cc1C(F)(F)F [Compound 70] | 100 | 100 |  |  |
| Fc1ccc(Nc2nc(NCc3ccc(Cl)nc3)nc(N/N=C/c3ccc(Cl)c(Cl)c3)n2)cc1C(F)(F)F [Compound 71] | 100 | 100 |  |  |

| Compound | pest or weed control at 2000 µg/mL [1, 3] [%] | pest or weed control at 2000 µg/mL [2, 3] [%] | pest or weed control at 2000 µg/mL [1] [%] | pest or weed control at 2000 µg/mL [2] [%] |
| --- | --- | --- | --- | --- |
| Fc1ccc(Nc2nc(NCc3ccc(Cl)nc3)nc(N/N=C/c3ccccc3Cl)n2)cc1C(F)(F)F [Compound 72] | 25 | 0 |  |  |
| Fc1cccc(/C=N/Nc2nc(NCc3ccc(Cl)nc3)nc(Nc3ccc(F)c(C(F)(F)F)c3)n2)c1 [Compound 73] | 100 | 100 |  |  |
| Fc1ccc(Nc2nc(NCc3ccc(Cl)nc3)nc(N/N=C/c3cccc(C(F)(F)F)c3)n2)cc1C(F)(F)F [Compound 74] | 100 | 100 |  |  |
| Fc1ccc(Nc2nc(NCc3ccc(Cl)nc3)nc(N/N=C/c3cccc(Cl)c3)n2)cc1C(F)(F)F [Compound 75] | 100 | 100 |  |  |
| Fc1ccc(/C=N/Nc2nc(NCc3ccc(Cl)nc3)nc(Nc3ccc(F)c(C(F)(F)F)c3)n2)cc1 [Compound 76] | 100 | 100 |  |  |
| Fc1ccc(Nc2nc(NCc3ccc(C(F)(F)F)nc3)nc(N/N=C/c3ccc(OC(F)(F)F)cc3)n2)cc1C(F)(F)F [Compound 77] | 100 | 100 |  |  |
| Fc1ccc(Nc2nc(N/N=C/c3cccc(OC(F)(F)C(F)F)c3)nc(N3CCOCC3)n2)cc1F [Compound 78] | 88 | 13 |  |  |
| CCCOc1ccc(Nc2nc(N/N=C/c3cccc(OC(F)(F)C(F)F)c3)nc(N3CCOCC3)n2)cc1 [Compound 79] | 100 | 13 |  |  |
| Fc1ccc(Nc2nc(NCCc3cccnc3)nc(N/N=C/c3ccc(OC(F)(F)F)cc3)n2)cc1C(F)(F)F [Compound 80] | 100 | 100 |  |  |
| Fc1cc(C(F)(F)F)ccc1Nc1nc(N/N=C/c2cccc(OC(F)(F)C(F)F)c2)nc(N2CCOCC2)n1 [Compound 81] | 100 | 100 |  |  |
| COc1ccc(CNc2nc(N/N=C/c3ccc(OC(F)(F)F)cc3)nc(Nc3ccc(F)c(C(F)(F)F)c3)n2)cn1 [Compound 82] | 100 | 100 |  |  |
| FC(F)C(F)(F)Oc1cccc(/C=N/Nc2nc(Nc3cccc(OC(F)(F)F)c3)nc(N3CCOCC3)n2)c1 [Compound 83] | 100 | 100 |  |  |
| FC(F)C(F)(F)Oc1cccc(Nc2nc(N/N=C/c3ccc(C(F)(F)F)cc3)nc(N3CCOCC3)n2)c1 [Compound 84] | 75 | 25 |  |  |
| FC(F)C(F)(F)Oc1cccc(Nc2nc(NCc3ccc(Cl)nc3)nc(N/N=C/c3ccc(C(F)(F)F)cc3)n2)c1 [Compound 85] | 100 | 100 |  |  |
| FC(F)C(F)(F)Oc1cccc(Nc2nc(NCc3ccc(Cl)nc3)nc(N/N=C/c3ccc(Cl)cc3)n2)c1 [Compound 86] | 100 | 100 |  |  |
| FC(F)C(F)(F)Oc1ccc(Nc2nc(NCc3ccc(Cl)nc3)nc(N/N=C/c3ccc(Cl)cc3)n2)cc1 [Compound 87] | 100 | 100 |  |  |
| Fc1ccc(Nc2nc(Cl)nc(N/N=C/c3ccc(OC(F)(F)F)cc3)n2)cc1C(F)(F)F [Compound 88] | 100 | 100 |  |  |
| FC(F)C(F)(F)Oc1ccc(Nc2nc(N/N=C/c3ccc(Cl)c(Cl)c3)nc(N3CCOCC3)n2)cc1 [Compound 89] | 100 | 100 |  |  |
| FC(F)C(F)(F)Oc1ccc(Nc2nc(NCc3ccc(Cl)nc3)nc(N/N=C/c3ccc(C(F)(F)F)cc3)n2)cc1 [Compound 93] | 100 | 100 |  |  |
| FC(F)C(F)(F)Oc1ccc(Nc2nc(NCc3ccc(Cl)nc3)nc(N/N=C/c3ccc(Cl)c(Cl)c3)n2)cc1 [Compound 94] | 100 | 100 |  |  |
| FCCOc1ccc(/C=N/Nc2nc(NCc3ccc(Cl)nc3)nc(Nc3ccc(F)c(C(F)(F)F)c3)n2)cc1 [Compound 95] |  |  | 38 | 75 |
| N#Cc1ccc(/C=N/Nc2nc(NCc3ccc(Cl)nc3)nc(Nc3ccc(OC(F)(F)C(F)F)cc3)n2)cc1 [Compound 96] | 100 | 100 |  |  |

From US8188273B2, “Insecticidal (1,3,5)-triazinyl phenyl hydrazones” (Dow AgroSciences, LLC., priority 2007, dated 2012)
